Results from BigSolDB 2.1.

NC(N)=C([N+](=O)[O-])[N+](=O)[O-]
Conditions | solubility (mole fraction)
in 1,4-dioxane, 298.15 K | 7.2e-05
in 1,4-dioxane, 314.15 K | 0.000102
in 1,4-dioxane, 326.85 K | 0.000143
in 1,4-dioxane, 339.65 K | 0.000215
in 1,4-dioxane, 341.45 K | 0.000257
in 1,4-dioxane, 347.55 K | 0.000315
in 1,4-dioxane, 358.35 K | 0.000357
in DEF, 298.35 K | 0.0702
in DEF, 314.15 K | 0.0824
in DEF, 324.95 K | 0.0914
in DEF, 340.15 K | 0.102
in DEF, 349.85 K | 0.112
in DEF, 367.45 K | 0.15
in DMF, 297.15 K | 0.0946
in DMF, 310.75 K | 0.109
in DMF, 327.85 K | 0.122
in DMF, 340.15 K | 0.136
in DMF, 352.75 K | 0.148
in DMF, 361.05 K | 0.161
in DMF, 365.15 K | 0.173
in DMSO, 293.75 K | 0.183
in DMSO, 303.85 K | 0.188
in DMSO, 312.15 K | 0.193
in DMSO, 319.15 K | 0.204
in DMSO, 328.65 K | 0.214
in DMSO, 339.85 K | 0.224
in DMSO, 350.15 K | 0.233
in DMSO, 354.15 K | 0.238
in DMSO, 358.15 K | 0.242
in DMSO, 367.15 K | 0.261
in NMP, 295.05 K | 0.163
in NMP, 318.15 K | 0.186
in NMP, 344.45 K | 0.207
in NMP, 363.85 K | 0.227
in NMP, 371.75 K | 0.246
in cyclohexanone, 291.95 K | 0.00244
in cyclohexanone, 320.85 K | 0.00434
in cyclohexanone, 330.95 K | 0.00521
in cyclohexanone, 335.65 K | 0.0061
in cyclohexanone, 343.15 K | 0.00693
in cyclohexanone, 360.85 K | 0.0104
in cyclohexanone, 370.35 K | 0.0138
in ethyl acetate, 296.15 K | 0.000116
in ethyl acetate, 304.95 K | 0.000187
in ethyl acetate, 314.75 K | 0.00027
in ethyl acetate, 318.15 K | 0.000282
in ethyl acetate, 324.35 K | 0.000332
in ethyl acetate, 326.55 K | 0.000368
in ethyl acetate, 334.15 K | 0.000444
in ethyl acetate, 344.65 K | 0.000544
in gamma-butyrolactone, 300.15 K | 0.0064
in gamma-butyrolactone, 304.15 K | 0.0077
in gamma-butyrolactone, 324.55 K | 0.0128
in gamma-butyrolactone, 332.55 K | 0.0153
in gamma-butyrolactone, 336.45 K | 0.0178
in gamma-butyrolactone, 343.45 K | 0.0202
in gamma-butyrolactone, 346.25 K | 0.0227
in gamma-butyrolactone, 350.85 K | 0.0252
in gamma-butyrolactone, 357.85 K | 0.0313
in gamma-butyrolactone, 368.55 K | 0.0373
in water, 296.15 K | 2e-05
in water, 303.45 K | 3.5e-05
in water, 310.75 K | 6e-05
in water, 318.65 K | 0.000122
in water, 326.15 K | 0.000154
in water, 328.55 K | 0.000198
in water, 337.95 K | 0.000277
in water, 343.15 K | 0.000365
in water, 348.75 K | 0.000504
